This experiment deals with Sarcoma-180. Briefly: Antitumor test against subcutaneously transplanted Sarcoma-180 in ICR mice (Pharmacological Test 1). It is filed as in vivo. Conditions: Sarcoma-180 s.c. in ICR mice, tail vein once a day for 7 consecutive days from 24 h after transplantation, tumor weight on 10th day. The procedure:
Sarcoma-180 subcultured in ascites of ICR mice was diluted with a physiological saline and subcutaneously transplanted into the backs of ICR mice in an amount of 2 ×10^7 cells each. Twenty-four hours after the transplantation, a test compound dissolved in sterilized physiological saline was administered to the tail vein of each of the mice once a day for 7 consecutive days.
The solid tumor was isolated from under the dorsal skin of mice on the 10th day after the transplantation to measure the weight of the tumor There was determined the ratio (T/C) of the weight of tumor (T) of the test compound group to the weight of tumor (C) of the control group.

“3'-O-(5-bromo-2-thenyl)-2'-deoxy-5-fluoro-5'-O- glycyluridine hydrochloride [Test Compound 2]”: the “50% tumor inhibition dose (ED50), dose at which T/C of tumor weight is 0.5” value was 7 mg/kg. Take `Cl.NCC(=O)OC[C@H]1O[C@@H](n2cc(F)c(=O)[nH]c2=O)C[C@@H]1OCc1ccc(Cl)s1` [Test Compound 1, 3'-O-(5-chloro-2-thenyl)-2'-deoxy-5-fluoro-5'-O-glycyluridine hydrochloride]: the ED50 (Mus musculus, sc, 240 h, read-out: 50% tumor inhibition dose (ED50), dose at which T/C of tumor weight is 0.5) came out at 5 mg/kg.

Source of the values: patent publication US4992534A, “3'-O-,5'-O-derivatives of 2'-deoxy-5-fluorouridine” (Otsuka Pharmaceutical Co., Ltd., priority 1987, dated 1991).
